# Results reported in US12364213B2, “Container for growth of cryo-sprouts” (RÄ FOODS HOLDINGS LLC, priority 2015, dated 2025).
# Experiments:
# Salmonella spp. = Salmonella spp. cocktail challenge on sprouts grown from soaked seeds (MPN and direct plating); format: cell-based
# Protocol: (§1) Isolates used to inoculate cryo-sprouts were grown in pure culture and quantitated in order to determine dilutions required to achieve a target level when inoculated into the product.
# (§2) The study encompassed three treatments exposed to two different temperatures over the course of 28 days, with weekly pulls, see Table 1 below.
# (§3) Initial counts were determined immediately after inoculation for each treatment on Day 0, and again after incubation at 40° F. for 21 days, and 50° F. for 12 days. Subsequent pulls occurred on a weekly basis from Day 0 (after the 21 days at 40° F. or after 12 days at 50° F.) through Day 28.
# (§4) The pulls occurred on Shelf Life Day 0, 7, 14, 21, and 28.
# (§5) One milliliter from each of the five Salmonella cultures was combined to form a cocktail. The Listeria monocytogenes and E. coli O157:H7 cultures were similarly combined to form a second and third cocktail. These three cocktails were diluted and added to the trays containing 60 ml of deionized water.
# (§6) Plastic trays with membrane were filled with 35 grams of soaked sprout seeds representing each of the three treatment groups.
# (§7) Sixty milliliters of deionized water was added to each tray along with a final concentration of approximately 1.0 E+3-1.0 E+4 cfu/ml of each of the three cocktails (Salmonella and Listeria together in one set, and E. coli O157:H7 into another set).
# Salmonella samples were serially diluted and spread plated on a Tryptic Soy Agar (TSA) basal layer and capped with XLD, incubated at 95° F. (35° C.) for 2 days. An MPN (Most probable number), consisting of a combination of the three samples, was also set up on each pull day due to the high number of other organisms present in the samples which obscured the direct counts.
# L. monocytogenes = L. monocytogenes cocktail challenge on sprouts grown from soaked seeds (MPN and direct plating); format: cell-based, Listeria monocytogenes
# Protocol: as §1, §2, §3, §4, §5, §6, §7
# Listeria samples were serially diluted and plated on a TSA basal layer and capped with Modified Oxford Medium (MOX), incubated at 95° F. (35° C.) for 2 days. An MPN, consisting of a combination of the three samples, was also set up on each pull day due to the high number of other organisms present in the samples which obscured the direct counts.
# E. coli O157:H7 = E. coli O157:H7 cocktail challenge on sprouts grown from soaked seeds (MPN and direct plating); format: cell-based
# Protocol: as §1, §2, §3, §4, §5, §6, §7
# E. coli O157:H7 samples were serially diluted and plated on a TSA basal layer and capped with EMB, incubated at 95° F. (35° C.) for 2 days. An MPN, consisting of a combination of the three samples, was also set up on each pull day due to the high number of other organisms present in the samples which obscured the direct counts.
# total aerobic bacteria = experiment: Aerobic Plate Count at Shelf Life Day 28 on samples grown at 40° F.; format: cell-based
# Protocol: Aerobic Plate Counts were also analyzed at Shelf Life Day 28 on the samples grown at 40° F. by plating to Standard Methods Agar and incubated at 95° F. for 2 days to determine the total aerobic bacteria present in the samples.
# [1] = tested on: Salmonella, Listeria monocytogenes, and E. coli O157:H7; experiment: Pathogen challenge study, overall impact of soak treatments versus Control; format: cell-based; conditions: seed soak treatments; 40° F. and 50° F.
# [2] = grown 12 days at 50° F., held at 40° F.
# [3] = grown 12 days at 50° F., Shelf Life Day 0
# [4] = grown 12 days at 50° F., Shelf Life Day 7 at 40° F.
# [5] = grown 12 days at 50° F., Shelf Life Day 14 at 40° F.
# [6] = grown 12 days at 50° F., Shelf Life Day 21 at 40° F.
# [7] = grown 12 days at 50° F., Shelf Life Day 28 at 40° F.
# [8] = grown 21 days at 40° F., held at 40° F. through Shelf Life Day 28, from Day 0 to below detectable limit
# [9] = grown 21 days at 40° F., held at 40° F., end of study, below detectable limit
# [10] = grown 21 days at 40° F., Shelf Life Day 0 at 40° F.
# [11] = grown 21 days at 40° F., Shelf Life Day 7 at 40° F.
# [12] = grown 21 days at 40° F., Shelf Life Day 14 at 40° F.
# [13] = grown 21 days at 40° F., Shelf Life Day 21 at 40° F.
# [14] = grown 21 days at 40° F., Shelf Life Day 28 at 40° F.
# [15] = grown 12 days at 50° F., Shelf Life Day 28
# [16] = grown 21 days at 40° F., Shelf Life Day 21
# [17] = grown 21 days at 40° F., Shelf Life Day 28
smiles,measurement,setting,value
"CC(=O)O [Acetic Acid, acetic acid]",Salmonella spp. counts at each pull date via MPN and plating methods,Salmonella spp.; [2],1.4-3 logs
same,Log10 (Salmonella MPN/g) or (CFU),Salmonella spp.; [3],3.04 Log10 MPN/g
same,Salmonella (MPN/g) or (CFU),Salmonella spp.; [3],"1,100 MPN/g"
same,Log10 (Salmonella MPN/g) or (CFU),Salmonella spp.; [4],2.63 Log10 MPN/g
same,Salmonella (MPN/g) or (CFU),Salmonella spp.; [4],430 MPN/g
same,Log10 (Salmonella MPN/g) or (CFU),Salmonella spp.; [5],2.46 Log10 MPN/g
same,Salmonella (MPN/g) or (CFU),Salmonella spp.; [5],290 MPN/g
same,Log10 (Salmonella MPN/g) or (CFU),Salmonella spp.; [6],2.04 Log10 MPN/g
same,Salmonella (MPN/g) or (CFU),Salmonella spp.; [6],110 MPN/g
same,Log10 (Salmonella MPN/g) or (CFU),Salmonella spp.; [7],1.63 Log10 MPN/g
same,Salmonella (MPN/g) or (CFU),Salmonella spp.; [7],43 MPN/g
same,Salmonella spp. overall log reduction,Salmonella spp.; [8],3.87 logs
same,"Salmonella spp. level, direct plating",Salmonella spp.; [9],< 10 cfu/g
same,Log10 (Salmonella MPN/g) or (CFU),Salmonella spp.; [10],2.18 Log10 MPN/g
same,Salmonella (MPN/g) or (CFU),Salmonella spp.; [10],150 MPN/g
same,Log10 (Salmonella MPN/g) or (CFU),Salmonella spp.; [11],0.96 Log10 MPN/g
same,Salmonella (MPN/g) or (CFU),Salmonella spp.; [11],9.2 MPN/g
same,Log10 (Salmonella MPN/g) or (CFU),Salmonella spp.; [12],<−0.5 Log10 MPN/g
same,Salmonella (MPN/g) or (CFU),Salmonella spp.; [12],<0.3 MPN/g
same,Log10 (Salmonella MPN/g) or (CFU),Salmonella spp.; [13],<−0.5 Log10 MPN/g
same,Salmonella (MPN/g) or (CFU),Salmonella spp.; [13],<0.3 MPN/g
same,Log10 (Salmonella MPN/g) or (CFU),Salmonella spp.; [14],<−0.5 Log10 MPN/g
same,Salmonella (MPN/g) or (CFU),Salmonella spp.; [14],< 0.3 MPN/g
same,Salmonella (MPN/g) or (CFU),"Salmonella spp.; grown 21 days at 40° F., Shelf Life Day 28 at 40° F., listed as Acetic",<0.3 MPN/g
same,L. monocytogenes increase through Shelf Life Day 21,L. monocytogenes; [2],approximately 2.5 logs
same,L. monocytogenes (MPN/g) or (CFU),L. monocytogenes; [3],"> 1,100 MPN/g"
same,Log10 (L. monocytogenes MPN/g) or (CFU),L. monocytogenes; [3],3.04 Log10 MPN/g
same,L. monocytogenes (MPN/g) or (CFU),L. monocytogenes; [4],"24,000 MPN/g"
same,Log10 (L. monocytogenes MPN/g) or (CFU),L. monocytogenes; [4],4.38 Log10 MPN/g
same,L. monocytogenes (MPN/g) or (CFU),L. monocytogenes; [5],"> 110,000 MPN/g"
same,Log10 (L. monocytogenes MPN/g) or (CFU),L. monocytogenes; [5],5.04 Log10 MPN/g
same,"L. monocytogenes average, direct plating","L. monocytogenes; grown 12 days at 50° F., Shelf Life Day 21",2.1 E+5 cfu/g
same,L. monocytogenes (MPN/g) or (CFU),L. monocytogenes; [6],2.4 E+5 MPN/g
same,Log10 (L. monocytogenes MPN/g) or (CFU),L. monocytogenes; [6],5.38 Log10 MPN/g
same,L. monocytogenes (MPN/g) or (CFU),"L. monocytogenes; grown 12 days at 50° F., Shelf Life Day 21 at 40° F., listed as Acetic","240,000 MPN/g"
same,"L. monocytogenes log increase, direct plating method",L. monocytogenes; [15],5.14 logs
same,"L. monocytogenes overall log increase, MPN method","L. monocytogenes; grown 12 days at 50° F., Shelf Life Day 28, from inoculated controls",1.82 logs
same,"L. monocytogenes direct counts, avg. log value","L. monocytogenes; grown 12 days at 50° F., Shelf Life Day 28, obscured by background flora, possible overestimation",7.95
same,L. monocytogenes (MPN/g) or (CFU),L. monocytogenes; [7],"43,000 MPN/g"
same,Log10 (L. monocytogenes MPN/g) or (CFU),L. monocytogenes; [7],4.63 Log10 MPN/g
same,L. monocytogenes (MPN/g) or (CFU),L. monocytogenes; [10],230 MPN/g
same,Log10 (L. monocytogenes MPN/g) or (CFU),L. monocytogenes; [10],2.36 Log10 MPN/g
same,L. monocytogenes (MPN/g) or (CFU),L. monocytogenes; [11],4.3 MPN/g
same,Log10 (L. monocytogenes MPN/g) or (CFU),L. monocytogenes; [11],0.63 Log10 MPN/g
same,"L. monocytogenes log increase, direct plating","L. monocytogenes; grown 21 days at 40° F., Shelf Life Day 14",1.33 logs
same,"L. monocytogenes direct plating counts, average","L. monocytogenes; grown 21 days at 40° F., Shelf Life Day 14, 21, and 28",approximately 4 logs
same,L. monocytogenes (MPN/g) or (CFU),L. monocytogenes; [12],"> 1,100 MPN/g"
same,Log10 (L. monocytogenes MPN/g) or (CFU),L. monocytogenes; [12],3.04 Log10 MPN/g
same,L. monocytogenes direct plating count,L. monocytogenes; [16],4.04 logs
same,"L. monocytogenes log increase, direct plating",L. monocytogenes; [16],1.23 logs
same,L. monocytogenes (MPN/g) or (CFU),L. monocytogenes; [13],930 MPN/g
same,Log10 (L. monocytogenes MPN/g) or (CFU),L. monocytogenes; [13],2.97 Log10 MPN/g
same,L. monocytogenes direct count log value,L. monocytogenes; [17],4.50 logs
same,"L. monocytogenes log increase, direct plating",L. monocytogenes; [17],1.69 logs
same,"L. monocytogenes overall log increase, MPN method",L. monocytogenes; [17],> 0.23 logs
same,L. monocytogenes (MPN/g) or (CFU),L. monocytogenes; [14],"> 1,100 MPN/g"
same,Log10 (L. monocytogenes MPN/g) or (CFU),L. monocytogenes; [14],3.04 Log10 MPN/g
same,E. coli O157:H7 avg. log values for each pull day,E. coli O157:H7; [2],3-5 logs
same,E. coli O157:H7 (MPN/mL) or (CFU),E. coli O157:H7; [3],"1,100 MPN/mL"
same,Log10 (E. coli O157:H7 MPN/g) or (CFU),E. coli O157:H7; [3],3.04 Log10 MPN/g
same,E. coli O157:H7 (MPN/mL) or (CFU),E. coli O157:H7; [4],"110,000 MPN/mL"
same,Log10 (E. coli O157:H7 MPN/g) or (CFU),E. coli O157:H7; [4],5.04 Log10 MPN/g
same,E. coli O157:H7 (MPN/mL) or (CFU),E. coli O157:H7; [5],"46,000 MPN/mL"
same,Log10 (E. coli O157:H7 MPN/g) or (CFU),E. coli O157:H7; [5],4.66 Log10 MPN/g
same,E. coli O157:H7 (MPN/mL) or (CFU),E. coli O157:H7; [6],930 MPN/mL
same,Log10 (E. coli O157:H7 MPN/g) or (CFU),E. coli O157:H7; [6],2.97 Log10 MPN/g
same,"E. coli O157:H7 level, MPN method",E. coli O157:H7; [15],"2,400 MPN/g"
same,"E. coli O157:H7 overall log reduction, MPN method","E. coli O157:H7; grown 12 days at 50° F., Shelf Life Day 28, from Day 0 inoculated control",1.73 logs
same,E. coli O157:H7 (MPN/mL) or (CFU),E. coli O157:H7; [7],"2,400 MPN/mL"
same,Log10 (E. coli O157:H7 MPN/g) or (CFU),E. coli O157:H7; [7],3.38 Log10 MPN/g
same,E. coli O157:H7 overall log reduction,E. coli O157:H7; [8],4.16 logs
same,"E. coli O157:H7 level, MPN",E. coli O157:H7; [9],< 0.3 MPN/g
same,"E. coli O157:H7 level, direct plating",E. coli O157:H7; [9],< 10 cfu/g
same,E. coli O157:H7 (MPN/mL) or (CFU),E. coli O157:H7; [10],<30 MPN/mL
same,Log10 (E. coli O157:H7 MPN/g) or (CFU),E. coli O157:H7; [10],0.95 Log10 MPN/g
same,E. coli O157:H7 (MPN/mL) or (CFU),E. coli O157:H7; [11],9.3 MPN/mL
same,Log10 (E. coli O157:H7 MPN/g) or (CFU),E. coli O157:H7; [11],0.97 Log10 MPN/g
same,E. coli O157:H7 (MPN/mL) or (CFU),E. coli O157:H7; [12],0.30 MPN/mL
same,Log10 (E. coli O157:H7 MPN/g) or (CFU),E. coli O157:H7; [12],−0.5 Log10 MPN/g
same,E. coli O157:H7 (MPN/mL) or (CFU),E. coli O157:H7; [13],<0.3 MPN/mL
same,Log10 (E. coli O157:H7 MPN/g) or (CFU),E. coli O157:H7; [13],<−0.5 Log10 MPN/g
same,E. coli O157:H7 (MPN/mL) or (CFU),E. coli O157:H7; [14],<0.3 MPN/mL
same,Log10 (E. coli O157:H7 MPN/g) or (CFU),E. coli O157:H7; [14],<−0.5 Log10 MPN/g
same,"Aerobic Plate Count, average",total aerobic bacteria,8.1 E+8 cfu/g
same,"Aerobic Plate Count, avg. log value",total aerobic bacteria,8.91
same,impact on the counts in comparison to the Control treatment,[1],did not appear to have a significant impact
